Patent US20060095978A1, “Screening assay” (priority 2002, published 2006)

What was measured:
Type in all cases: in vivo, mouse
IL-2 = assay: Serum IL-2 in OVA323-339 stimulated DO11.10 mice (ELISA)
Experimental: Groups of six, 8-10 weeks old, male or female DO11.10 mice weighing between 20-22 g are obtained as described in Murphy K. M. et al. 1990, Science 250:1720-1722. The animals are maintained in Microvent positive air supply cages (22±1° C., 55±5% relative humidity, 50-70 changes of fresh air/hour and 12 hours day and night cycle) with sawdust bedding. Standard laboratory mouse chow (SNIFF, Soest, Germany) and drinking water is given ad libidum. The animals are used for the study after an adaptation period of 10-14 days and grouped (6 per group) in type II Macrolon cages one day before the experiment.
Groups of six DO11.10 mice are i.p. injected with 10 μg of ovalbumin (OVA, Sigma, St. Louis, USA) absorbed to 2 mg of Al(OH)3 (Alu Gel S; 2% Al(OH)3, Serva, Heidelberg, FRG) and diluted with saline to a volume of 0.2 ml or various amounts (1, 3, 10, 30, or 90 μg per mouse) of alum-precipitated OVA323-339 peptide (98% purity, piChem R&D, Graz Austria) in 0.2 ml on days 0 and 14. Before and at different time points on days 0 and 14 after the OVA or OVA323-339 peptide administration about 200 μl of blood are collected by puncture of the retro-orbital plexus under ether anesthesia.
The sera are collected and stored frozen at −20° C. until analyzed.
The Neoral solution is diluted further with tap water. Doses of 20, 40, and 80 mg/kg b.w. are administered in a volume of 0.2 ml. Animals in the control group receive the solvent alone.
Murine IL-2, IFN-γ and IL-4 are analyzed by immunoassays (Quantikine R&D Systems, Minneapolis, Minn., USA). Results are expressed as pg per ml serum expressed as mean±SEM pg of the cytokine indicated per ml serum. Test and control groups are evaluated by Dunn test by Kruskall-Wallis One Way Anova using the SigmaStat® program.
Animals of the control group are injected with alum. Blood is collected before and at 2 hours after the peptide injection. IL-2 is determined in the sera by an ELISA. Results are expressed as mean pg per ml serum±SEM.
Blood is collected 2 hours later and IFN-γ, IL-4 and IL-2 levels are determined in the sera by ELISAs. Results are expressed as mean pg per ml serum±SEM.

IL-1α = assay: Serum IL-1α in DO11.10 mice primed with OVA-peptide and challenged with LPS; conditions: challenged with the highest LPS dose
Experimental: (§1) Animals are provided as described in Example 2a).
(§2) b) Administration of OVA323-339 (=OVA-peptide) and LPS Groups of six DO11.10 mice receive i.p. 30 μg of OVA323-339 peptide (98% purity, pi Chem R&D, Graz Austria) in 0.2 ml 0.9% saline per mouse. Control mice are injected i.p. with the same amount of saline.
(§3) 18 hours later the mice are challenged i.p. with 100, 300 or 500 μg LPS (E. coli 0111: B4 Sigma Vienna, Austria). At 2, 4 and 6 hours after the LPS administration about 200 μl of blood are collected by puncture of the retro-orbital plexus under ether anesthesia. The sera are collected and stored frozen at −20° until analyzed.
(§4) Murine IL-1α, IL-1β and TNF-α serum levels are determined by ELISAs (IL-1α and TNF-α, Bender MedSystems, Vienna Austria; IL-1β, Quantikine R&D Systems, Minneapolis, Minn.). Results are expressed as pg per ml serum. Differences in the serum cytokines concentrations between the different experimental groups are examined for statistical significance by the Mann-Whitney U test, two tailed. Results are expressed as the mean±SEM. p<0.05 is regarded as significant.
The injection of OVA-peptide at doses between 3 and 90 μg per mouse increases serum concentrations of IFN-γ as well as other cytokines, such as IL-4 and IL-2, in a dose/amount-dependent way. […] The serum IL-1α levels are expressed as mean pg per ml serum±SEM.

IL-1β = assay: Serum IL-1β in DO11.10 mice primed with OVA-peptide and challenged with LPS
Experimental: as §1, §2, §3, §4
Values of serum IL-1β responses in control DO11.10 mice challenged with various doses of LPS (=NaCl+LPS) and in mice primed with the OVA-peptide 18 hours prior to the LPS challenge (=OVA+LPS) are given in TABLE 7. The serum IL-1β levels are expressed as mean pg per ml serum±SEM.

TNF-α = assay: Serum TNF-α in DO11.10 mice primed with OVA-peptide and challenged with LPS
Experimental: as §1, §2, §3, §4
The effects of various doses of LPS (100, 300, or 500 μg/mouse) on the production of TNF-α in the serum of non-sensitized DO11.10 mice or mice sensitized by i.p. injection of OVA-peptide (30 μg/mouse, 18 hours prior to LPS challenge) are given in TABLE 8. The TNF-α serum levels are expressed as mean pg per ml serum±SEM.

## OVA323-339: peptide derived from chicken ovalbumin containing amino acids from position 323 to 339 (KISQAVHAAHAEINEAG; UniProt P01012 323-339, looked up, fragment)
IL-2; 3 μg OVA323-339 i.p.
  IL-2 levels in pg/ml serum on day 0 after 2 hours: 327.513 ± 76.331 pg/mL
IL-2; 10 μg OVA323-339 i.p.
  IL-2 levels in pg/ml serum on day 0 after 2 hours: 2866.966 ± 361.613 pg/mL
IL-2; 30 μg OVA323-339 i.p.
  IL-2 levels in pg/ml serum on day 0 after 2 hours: 2926.303 ± 381.536 pg/mL
IL-2; 90 μg OVA323-339 i.p.
  IL-2 levels in pg/ml serum on day 0 after 2 hours: 4841.034 ± 108.352 pg/mL
IL-1α
  effect of OVA-peptide priming on IL-1α serum levels: rapid increase
IL-1β; 100 μg LPS, 2 hours
  IL-1β in OVA-peptide primed versus unprimed mice: 1.6 fold
IL-1β; 100 μg LPS, 4 hours
  IL-1β in OVA-peptide primed versus unprimed mice: 1.7 fold
IL-1β; 100 μg LPS, 6 hours
  IL-1β in OVA-peptide primed versus unprimed mice: 7.8 fold
IL-1β; 300 μg LPS, 2 hours
  IL-1β in OVA-peptide primed versus unprimed mice: 1.9 fold
IL-1β; 300 μg LPS, 4 hours
  IL-1β in OVA-peptide primed versus unprimed mice: 2.7 fold
IL-1β; 300 μg LPS, 6 hours
  IL-1β in OVA-peptide primed versus unprimed mice: 3.0 fold
IL-1β; 500 μg LPS, 2 hours
  IL-1β in OVA-peptide primed versus unprimed mice: 3.5 fold
IL-1β; 500 μg LPS, 4 hours
  IL-1β in OVA-peptide primed versus unprimed mice: 2.2 fold
IL-1β; 500 μg LPS, 6 hours
  IL-1β in OVA-peptide primed versus unprimed mice: 5.7 fold
TNF-α; 100 μg LPS, 2 hours
  TNF-α in OVA-primed versus unprimed mice: 9.7 fold
TNF-α; 100 μg LPS, 4 hours
  change in TNF-α levels, OVA-primed versus unprimed: no significant changes
TNF-α; 300 μg LPS, 2 hours
  TNF-α in OVA-peptide primed versus unprimed mice: 7.8 fold
TNF-α; 300 μg LPS, 4 hours
  difference in TNF-α levels, OVA-peptide primed versus unprimed: no difference
TNF-α; 500 μg LPS, 2 hours
  TNF-α in OVA-peptide primed versus unprimed mice: 5.2 fold
